From patent US11813270B2, “Nitric oxide-releasing antibacterial compounds, formulations, and methods pertaining thereto” (KNOW BIO, LLC, priority 2020, dated 2023) come the findings set out here.

Data set [1] has as its system Mycobacterium abscessus. Briefly: MIC/MBC assay (CLSI method). It counts as cell-based. The note with it: unit not given.
For data set [2], the system named is Pseudomonas aeruginosa. Nature of the data set: MIC/MBC assay (CLSI method). It counts as cell-based. The note with it: combined composition of β-cyclodextrin and MTDD.

Turning to `C[C@@H]1CCC[C@H](C)N1[N+]([O-])=N[O-].[Na+]` [cis-DMP/NO], the “NO Load” value (unit not given) is 6.9. Further, the MBC in data set [1] (M. abscessus N0010, clinical) was 4; in data set [1] (M. abscessus N0016, clinical), 4; in data set [1] (M. abscessus N0017, clinical) it was 4; in data set [1] (M. abscessus N0018, clinical) it was 4; in data set [1] (M. abscessus N0019, clinical), 4; in data set [1] (M. abscessus N0020, clinical) it was 2. In data set [1] (M. abscessus N0046), this compound returned an MBC of 4. The MIC in data set [1] (M. abscessus N0010, clinical) stood at 1; in data set [1] (M. abscessus N0016, clinical) it was 2; in data set [1] (M. abscessus N0017, clinical), 2; in data set [1] (M. abscessus N0018, clinical), 1; in data set [1] (M. abscessus N0019, clinical) it was 2; in data set [1] (M. abscessus N0020, clinical) it was 1. This compound registered an MIC in data set [1] (M. abscessus N0046) of 2.
For `OC[C@H]1O[C@@H]2O[C@H]3[C@H](O)[C@@H](O)[C@@H](O[C@H]4[C@H](O)[C@@H](O)[C@@H](O[C@H]5[C@H](O)[C@@H](O)[C@@H](O[C@H]6[C@H](O)[C@@H](O)[C@@H](O[C@H]7[C@H](O)[C@@H](O)[C@@H](O[C@H]8[C@H](O)[C@@H](O)[C@@H](O[C@H]1[C@H](O)[C@H]2O)O[C@@H]8CO)O[C@@H]7CO)O[C@@H]6CO)O[C@@H]5CO)O[C@@H]4CO)O[C@@H]3CO` [0% MTDD, β-cyclodextrin], for the setting “combined composition of β-cyclodextrin and MTDD”, the NO-loading stood at 0.0 µmol/mg. Besides, the “MIC against P. aeruginosa” value in data set [2] was greater than 6250 µg/mL.
